Reference: ChEMBL document CHEMBL1201862, “PubChem BioAssay data set” (2004)
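A five-concentration, 48-hour dose response in 96-well plates underlies each endpoint, interpolated linearly between surrounding concentrations. Here, GI50 denotes the concentration required for 50% inhibition of growth.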 Active and inactive are the calls of the source. Cut-off read from the data, not from the text of the source: active = GI50 up to about 1.1 µM and inactive = higher.

Legend:
Test in all cases: NCI-60 cell line screen, 48 h
U-251 = test system: U-251
OVCAR-8 = test system: OVCAR-8
BT-549 = test system: BT-549
RXF 393 = test system: RXF 393
HCC 2998 = test system: HCC 2998
MOLT-4 = test system: MOLT-4
A498 = test system: A498
SNB-19 = test system: SNB-19
EKVX = test system: EKVX
SK-MEL-28 = test system: SK-MEL-28
Hs-578T = test system: Hs-578T
COLO 205 = test system: COLO 205
SN12C = test system: SN12C
SF-268 = test system: SF-268
UACC-62 = test system: UACC-62
HOP-92 = test system: HOP-92
SK-MEL-2 = test system: SK-MEL-2
A549 = test system: A549
SF-295 = test system: SF-295
OVCAR-3 = test system: OVCAR-3
KM12 = test system: KM12
MDA-N = test system: MDA-N
MDA-MB-231 = test system: MDA-MB-231
UACC-257 = test system: UACC-257
SK-OV-3 = test system: SK-OV-3
MDA-MB-435 = test system: MDA-MB-435
DLD-1 = test system: DLD-1
HOP-62 = test system: HOP-62
HT-29 = test system: HT-29
Malme-3M = test system: Malme-3M
LXFL 529 = test system: LXFL 529
SW-620 = test system: SW-620
TK-10 = test system: TK-10
IGROV-1 = test system: IGROV-1
ACHN = test system: ACHN
SF-539 = test system: SF-539
XF498 = test system: XF498
M14 = test system: M14
HOP-18 = test system: HOP-18
SNB-78 = test system: SNB-78
UO-31 = test system: UO-31
HL-60 = test system: HL-60
LOX IMVI = test system: LOX IMVI
K562 = test system: K562
SR = test system: SR
HCT-116 = test system: HCT-116
DMS-273 = test system: DMS-273
CCRF-CEM = test system: CCRF-CEM
SK-MEL-5 = test system: SK-MEL-5
OVCAR-4 = test system: OVCAR-4
M19-MEL = test system: M19-MEL
NCI-H23 = test system: NCI-H23
DMS-114 = test system: DMS-114
NCI-H522 = test system: NCI-H522
RPMI-8226 = test system: RPMI-8226
HCT-15 = test system: HCT-15
MCF7 = test system: MCF7
KM-20L2 = test system: KM-20L2
PC-3 = test system: PC-3
DU-145 = test system: DU-145
CAKI-1 = test system: CAKI-1
NCI-H460 = test system: NCI-H460
NCI-H226 = test system: NCI-H226
786-0 = test system: 786-0
NCI/ADR-RES = test system: NCI/ADR-RES
SNB-75 = test system: SNB-75
OVCAR-5 = test system: OVCAR-5
T47D = test system: T47D

C1COCCN1.S=C(S)N1CCOCC1
GI50 (U-251): 4.98 µM (inactive) | GI50 (OVCAR-8): > 100 µM (inactive) | GI50 (BT-549): > 100 µM (inactive) | GI50 (RXF 393): 2.43 µM (inactive) | GI50 (HCC 2998): 2.59 µM (inactive) | GI50 (MOLT-4): 1.47 µM (inactive) | GI50 (A498): 24.9 µM (inactive) | GI50 (SNB-19): > 100 µM (inactive) | GI50 (EKVX): > 100 µM (inactive) | GI50 (SK-MEL-28): 10.3 µM (inactive) | GI50 (Hs-578T): > 100 µM (inactive) | GI50 (COLO 205): 661 nM (active) | GI50 (SN12C): > 100 µM (inactive) | GI50 (SF-268): 9.68 µM (inactive) | GI50 (UACC-62): 3.8 µM (inactive) | GI50 (HOP-92): 30 µM (inactive) | GI50 (SK-MEL-2): 36.4 µM (inactive) | GI50 (A549): 8.24 µM (inactive) | GI50 (SF-295): > 100 µM (inactive) | GI50 (OVCAR-3): 2.68 µM (inactive) | GI50 (KM12): 20.1 µM (inactive) | GI50 (MDA-N): 94 µM (inactive) | GI50 (MDA-MB-231): > 100 µM (inactive) | GI50 (UACC-257): 4.68 µM (inactive) | GI50 (SK-OV-3): 5.4 µM (inactive) | GI50 (MDA-MB-435): > 100 µM (inactive) | GI50 (DLD-1): 628 nM (active) | GI50 (HOP-62): 92.3 µM (inactive) | GI50 (HT-29): 811 nM (active) | GI50 (Malme-3M): 28.4 µM (inactive) | GI50 (LXFL 529): 1.34 µM (inactive) | GI50 (SW-620): 2.55 µM (inactive) | GI50 (TK-10): > 100 µM (inactive) | GI50 (IGROV-1): 6.76 µM (inactive) | GI50 (ACHN): > 100 µM (inactive) | GI50 (SF-539): 43.1 µM (inactive) | GI50 (XF498): 1.92 µM (inactive) | GI50 (M14): 12.8 µM (inactive) | GI50 (HOP-18): > 100 µM (inactive) | GI50 (SNB-78): 41.5 µM (inactive) | GI50 (UO-31): > 100 µM (inactive) | GI50 (HL-60): 1.12 µM (inactive) | GI50 (LOX IMVI): 18.3 µM (inactive) | GI50 (K562): 1.46 µM (inactive) | GI50 (SR): 1.04 µM (active) | GI50 (HCT-116): 2.12 µM (inactive) | GI50 (DMS-273): 1.38 µM (inactive) | GI50 (CCRF-CEM): 526 nM (active) | GI50 (SK-MEL-5): 7.59 µM (inactive) | GI50 (OVCAR-4): 6.9 µM (inactive) | GI50 (M19-MEL): 1.25 µM (inactive) | GI50 (NCI-H23): 2.43 µM (inactive) | GI50 (DMS-114): 279 nM (active) | GI50 (NCI-H522): 973 nM (active) | GI50 (RPMI-8226): 1.4 µM (inactive) | GI50 (HCT-15): 6.7 µM | GI50 (MCF7): 29.4 µM (inactive) | GI50 (KM-20L2): 1.43 µM (inactive) | GI50 (PC-3): > 100 µM (inactive) | GI50 (DU-145): > 100 µM (inactive) | GI50 (CAKI-1): 5.51 µM (inactive) | GI50 (NCI-H460): 5.87 µM (inactive) | GI50 (NCI-H226): > 100 µM (inactive) | GI50 (786-0): 10.1 µM (inactive) | GI50 (NCI/ADR-RES): > 100 µM (inactive) | GI50 (SNB-75): 7.08 µM (inactive) | GI50 (OVCAR-5): 12.5 µM (inactive) | GI50 (T47D): > 100 µM (inactive)
